In patent US20220241316A1, “25-HYDROXYCHOLESTEROL (25HC), CRYAB AGGREGATION INHIBITOR, IS A NOVEL SENOLYTIC” (Buck Institute for Research on Aging, priority 2019, published 2022):
Entries after “also recorded” stand apart in the source; their conditions may differ.

Experiments:
CRYAB protein [1] = target: T1, CRYAB protein (Homo sapiens, UniProt P02511); experiment: Inhibition of CRYAB protein aggregation; details: stated with reference to Example 1; no aggregation test described
T1 sequence (P02511 1-175): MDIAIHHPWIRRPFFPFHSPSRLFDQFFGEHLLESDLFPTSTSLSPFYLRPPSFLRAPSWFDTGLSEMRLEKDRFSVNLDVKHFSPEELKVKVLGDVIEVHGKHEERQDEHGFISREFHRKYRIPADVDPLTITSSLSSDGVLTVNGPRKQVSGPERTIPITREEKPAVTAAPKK

senescent cells = experiment: Evaluation of senolytic effects of 25HC, oxysterols and 25HC analogs in cell culture; type: cell-based; details: cell type not stated
Text: Genetic knockdown of this gene kills senescent cells.
There are some commercially available analogs of 25HC such as oxysterols (Griffiths et al. (2019) Biochem Soc Trans., 47: 517-526).

[2] = system: senescent human fetal lung fibroblast (IMR-90); experiment: Cell viability assay (Cell Counting Kit-8) on NS and SEN IMR-90 cells; type: cell-based; details: treatment started immediately after removing DMSO/250 nM Doxo; 72 hrs; normalized to DMSO
Description: Panel A) Timeline for DMSO/250 nM Doxo treatment and early-time point timeline for 24(S)-HC and 27HC treatment on NS and SEN cells. 24(S)HC and 27HC treatment were started immediately after removing DMSO/Doxo. Panel B) and C) Cell viability assay were performed on NS and SEN cells treated with different concentrations of 24(S)HC and 27HC, respectively. 24(S)HC and 27HC treatment were done for 72 hrs. The cell viability was analyzed by Cell Counting Kit-8 according to the manufactures' protocol using Spectra Max 190 (Molecular Devices). The value was normalized to that of DMSO. (Mean+/−SE, n=3, *p<0.05, **p<0.01 and ***p<0.001 by student's t-test).

CRYAB protein [3] = target: T1, CRYAB protein; details: from Makley et al. (2015) / Xu et al. (2017); cited from earlier work
senescent mDFs = experiment: Cell viability assay on NS and SEN mDFs treated with 25HC; type: cell-based, mouse; details: treatment 72 hrs
Description: (§1) Panel A) Timeline for DMSO/Doxo treatment and early-time point timeline for 25HC treatment on NS and SEN cells. 25HC treatment was started immediately after removing DMSO/Doxo. Panel B) Cell viability assay was performed on NS and SEN cells treated with different concentrations of 25HC. 25HC treatment was done for 72 hrs. (Mean+/−SD, n=3, *p<0.05, **p<0.01 vs 0 uM by student's t-test).
as §1, with “late-time” for “early-time”, “7 days” for “immediately”, “n=6, **p<0.01, ***p<0.001, **** p<0.0001,” for “n=3, *p<0.05, **p<0.01”

senescent FAPs = experiment: Cell viability assay on NS and SEN FAPs treated with 25HC; type: cell-based, mouse; details: 25HC started immediately after removing DMSO/Doxo (early-time point); treatment total 5 days; normalized to 0 uM
Description: as §1, with “total 5 days. The value was normalized to that of 0 uM. The average value of 0 μM is expressed as 100% (Mean+/−SE,” for “72 hrs. (Mean+/−SD,”, “n=3,” for “n=3, *p<0.05,”, “and ***p<0.001” for “vs 0 uM”, “t-test vs NS).” for “t-test).”

CRYAB mRNA [4] = experiment: qPCR of CRYAB mRNA in Doxo treated mDFs; type: cell-based, mouse; details: Doxo treated SEN mDFs day 1, 5, 14; normalized to β-actin, vs DMSO
Description: (§2) Real-time quantitative PCR (qPCR) was performed on RNA samples isolated from DMSO treated NS mDF cells or Doxo treated SEN mDF cells at day 1, 5, and 14 after Doxo treatment. The amount of mRNA was normalized to the level of β-actin (see, e.g., Demaria et al. (2017) Cancer Discovery, 2: 165-176; and references cited therein). Relative levels of CRYAB mRNA for DMSO and Doxo treated mDFs was measured. The average value of DMSO is expressed as 1. (Mean+/−SE, n=4, *p<0.05, ***p<0.001 by Dunnett's multiple comparisons test vs DMSO).

p16INK4a mRNA [5] = experiment: qPCR of p16INK4a mRNA in Doxo treated mDFs; type: cell-based, mouse; details: 250 nM Doxo for 24 hours; day 1, 5, 14; normalized to β-actin, vs DMSO
Description: as §2, with “As shown, mDFs undergo senescence upon 250 nM of Doxo treatment for 24 hours (Day 0). Real-time” for “Real-time”, “NS (Non-Senescent)” for “NS”, “SEN (Senescent)” for “SEN”, “p16INK4a” for “CRYAB”, “**p<0.01, ****p<0.0001” for “*p<0.05, ***p<0.001”

CRYAB mRNA [6] = experiment: qPCR of CRYAB mRNA in Doxo treated FAPs; type: cell-based, mouse; details: 250 nM doxorubicin 24 hrs; normalized to β-actin, vs DMSO
Description: The cells were treated with 250 nM doxorubicin and incubated for 24 hrs (Day 0). The mRNA was extracted from DMSO treated NS or Doxo treated SEN FAPs at the indicated time points and quantified by qPCR. The amount of mRNA was normalized to the level of β-actin mRNA. The average value of DMSO is expressed as 1 (Mean+/−SE, n=3, **p<0.01 and ***p<0.001 by Dunnett's multiple comparisons test vs DMSO).

p16INK4a mRNA [7] = experiment: qPCR of p16INK4a mRNA in Doxo treated FAPs; type: cell-based, mouse; details: 250 nM Doxo for 24 hours; normalized to β-actin, vs DMSO
Description: As shown, FAPs undergo senescence upon 250 nM of Doxo treatment for 24 hours (Day 0). The mRNA was extracted from DMSO treated NS or Doxo treated SEN FAPs at indicated time points and quantified by qPCR. The amount of mRNA was normalized to the level of β-actin. The graphs show the relative levels of p16INK4a mRNA for DMSO and Doxo treated samples. The average value of DMSO is expressed as 1 (Mean+/−SE, n=3, *p<0.05 by Dunnett's multiple comparisons test vs DMSO).

| SMILES | Inhibition of CRYAB protein aggregation (as asserted in the description) (CRYAB protein [1]) | Senolytic effect (senescent cells) | also measured |
| --- | --- | --- | --- |
| C[C@@H](CCCC(C)(O)c1ccccc1)C1CCC2C3CC=C4C[C@H](O)CC[C@@]4(C)C3CC[C@]21C (relative stereo) [rel-(3R,10S,13S)-17-[(2S)-6-hydroxy-6-phenylheptan-2-yl]-10,13-dimethyl-2,3,4,7,8,9,10,11,12,13,14,15,16,17-tetradecahydro-1H-cyclopenta[a]phenanthren-3-ol] | effective inhibitors of CRYAB protein aggregation | novel senolytics | – |
| C[C@H](CCCC(C)(C)O)[C@H]1CC[C@H]2[C@@H]3[C@H](O)C=C4C[C@@H](O)CC[C@]4(C)[C@H]3CC[C@]12C [7α,25-Dihydroxycholesterol] | effective inhibitors of CRYAB protein aggregation | novel senolytics | – |
| CC(C)CCC[C@@H](C)[C@H]1CC[C@H]2[C@@H]3[C@H](O)C=C4C[C@@H](O)CC[C@]4(C)[C@H]3CC[C@]12C [7αHC, 7α-Hydroxycholesterol] | effective inhibitors of CRYAB protein aggregation | novel senolytics | – |
| CC(C)CCC[C@@H](C)[C@H]1CC[C@H]2[C@@H]3[C@@H](O)C=C4C[C@@H](O)CC[C@]4(C)[C@H]3CC[C@]12C [7βHC, 7β-Hydroxycholesterol] | effective inhibitors of CRYAB protein aggregation | novel senolytics | – |
| CC(C)CC[C@@H](O)[C@@H](C)[C@H]1CC[C@H]2[C@@H]3CC=C4C[C@@H](O)CC[C@]4(C)[C@H]3CC[C@]12C [22(R)HC, 22(R)-Hydroxycholesterol] | effective inhibitors of CRYAB protein aggregation | novel senolytics | – |
| CC(C)[C@@H](O)CC[C@@H](C)[C@H]1CC[C@H]2[C@@H]3CC=C4C[C@@H](O)CC[C@]4(C)[C@H]3CC[C@]12C [24(S)HC, 24(S)-Hydroxycholesterol] | effective inhibitor of CRYAB protein aggregation | novel senolytics | Cell viability of NS and SEN IMR-90 cells, early-time point [2]: specifically kill senescent human fetal lung fibroblast; also recorded: specifically kill senescent IMR-90 cells |
| C[C@H](CCCC(C)(C)O)[C@H]1CC[C@H]2[C@@H]3CC=C4C[C@@H](O)CC[C@]4(C)[C@H]3CC[C@]12C [25HC, 25-hydroxycholesterol] | effective inhibitor of CRYAB protein aggregation | novel senolytic agent | Inhibition of CRYAB / CRYAB protein aggregation (literature) (CRYAB protein [3]): effective inhibitor of CRYAB; Cell viability of NS and SEN mDFs, late-time point (senescent mDFs; 25HC started 7 days after removing DMSO/Doxo): specifically kills senescent mDFs at late-timepoint; Cell viability of NS and SEN mDFs, early-time point (senescent mDFs; 25HC started immediately after removing DMSO/Doxo): specifically kills senescent mDFs at early-timepoint; Cell viability of NS and SEN FAPs (senescent FAPs): specifically kills senescent FAPs |
| CC(=O)CCC[C@@H](C)[C@H]1CC[C@H]2[C@@H]3CC=C4C[C@@H](O)CC[C@]4(C)[C@H]3CC[C@]12C [27-Nor-25-ketocholesterol] | effective inhibitors of CRYAB protein aggregation | novel senolytics | – |
| C[C@@H](CO)CCC[C@@H](C)[C@H]1CC[C@H]2[C@@H]3CC=C4C[C@@H](O)CC[C@]4(C)[C@H]3CC[C@]12C [27HC, 27-Hydroxycholesterol] | effective inhibitor of CRYAB protein aggregation | novel senolytics | Cell viability of NS and SEN IMR-90 cells, early-time point [2]: specifically kill senescent human fetal lung fibroblast; also recorded: specifically kill senescent IMR-90 cells |
| CC(CCCN(C)C)C1CCC2C3CC=C4C[C@@H](O)CC[C@]4(C)C3CC[C@]12C (stereo partly drawn) [(3S,10R,13R)-17-(5-(dimethylamino)pentan-2-yl)-10,13-dimethyl-2,3,4,7,8,9,10,11,12,13,14,15,16,17-tetradecahydro-1H-cyclopenta[a]phenanthren-3-ol] | effective inhibitors of CRYAB protein aggregation | novel senolytics | – |
| C[C@H](CCC(=O)O)[C@H]1CCC2[C@@H]3CC=C4C[C@H](O)CC[C@]4(C)C3CC[C@@]21C (stereo partly drawn) [(3alpha,9xi,14xi)-3-hydroxychol-5-en-24-oic acid] | effective inhibitors of CRYAB protein aggregation | novel senolytics | – |
| C=C1CC[C@@H](O)CC1=C/C=C1\CCC[C@]2(C)[C@@H]([C@H](C)CCCC(C)(C)O)CC[C@@H]12 [Calcifediol 25-Hydroxyvitamin D3, reference compound] | effective inhibitors of CRYAB protein aggregation | novel senolytics | – |
| COc1cccc2c1C(=O)c1c(O)c3c(c(O)c1C2=O)C[C@@](O)(C(=O)CO)C[C@@H]3O[C@H]1C[C@H](N)[C@H](O)[C@H](C)O1 [Doxo, doxorubicin] | – | – | Relative level of CRYAB mRNA in mDFs (CRYAB mRNA [4]): upregulated CRYAB; Relative level of p16INK4a mRNA in mDFs (p16INK4a mRNA [5]): induces senescence marker, p16INK4a; Relative level of CRYAB mRNA in FAPs (CRYAB mRNA [6]): significantly increased; Relative level of p16INK4a mRNA in FAPs (p16INK4a mRNA [7]): induced senescence |
